In US20190358242A1, “COMPOSITIONS, KITS, AND METHODS TO INDUCE ACQUIRED CYTORESISTANCE USING STRESS PROTEIN INDUCERS” (FRED HUTCHINSON CANCER RESEARCH CENTER, priority 2017, published 2019):

Key:
haptoglobin mRNA [1] = assay: Liver haptoglobin mRNA (RT-PCR); type: in vivo, CD-1 mice
Description: (§1) Thirty-two mice were divided into 4 equal groups: (1) control mice; (2) mice treated with 1 mg of N-Mgb injection (as a bolus through the tail vein); (3) mice treated with […] of SnPP (via tail vein); and (4) mice treated with combined N-Mgb 1 SnPP. After either 4 hours (n=16) or 18 hours (n=16), the mice were deeply anesthetized with pentobarbital (50 mg/kg), the abdomen was opened through a midline abdominal incision, and the kidneys were removed. To determine potential effects on extrarenal organs, a liver lobe and the heart were also removed. The tissues were iced and then extracted for protein and RNA (RNeasy Plus Mini; Qiagen, Valencia, Calif.) and subjected to enzyme linked immunosorbent assay (ELISA) and reverse transcriptase polymerase chain reaction (RT-PCR) for HO-1, haptoglobin, and IL-10 protein and messenger RNAs (mRNAs). Zager et al. J Am Soc Nephrol 2014; 25:998-1012; Zager et al. Am J Physiol 2012; 303:F139-48. As an assessment of renal function, control mice and the 18 hour after N-Mgb+SnPP-treated mice had blood urea nitrogen (BUN) and plasma creatinine levels measured. Additionally, transverse 10% formalin fixed kidney sections ([…]) were cut and stained with hematoxylin and eosin (H&E) and periodic acid Schiff (PAS) to further assess potential injury.

IL-10 mRNA [2] = assay: Cardiac IL-10 mRNA (RT-PCR); type: in vivo, CD-1 mice
Description: as §1

IL-10 mRNA [3] = assay: Kidney IL-10 mRNA (RT-PCR); type: in vivo, CD-1 mice
Description: as §1

haptoglobin mRNA [4] = assay: SnPP vs. SnMeP: renal cortical haptoglobin mRNA induction (RT-PCR); type: in vivo, mice; settings: 1 umole, 4 hrs post injection, n 3
Description: FIG. 28. Comparison of SnPP vs. SnMeP effects on renal cortical HO-1 and haptoglobin mRNA induction 4 hrs post agent injection. Mice received either 1 umole tin protoporphyrin (SnPP), tin mesoporphyrin (SnMeP), or vehicle (n, 3 each) and 4 hrs renal cortical RNA was extracted and subjected to RT-PCR.

haptoglobin protein = assay: Kidney haptoglobin protein (ELISA); type: in vivo, CD-1 mice
Description: as §1

HO-1 mRNA = assay: Liver HO-1 mRNA (RT-PCR); type: in vivo, CD-1 mice
Description: as §1

HO-1 protein = assay: Cardiac HO-1 protein (ELISA); type: in vivo, CD-1 mice; settings: 18 h after IV injection
Description: as §1

IL-10 mRNA [5] = assay: Liver IL-10 mRNA (RT-PCR); type: in vivo, CD-1 mice
Description: as §1

haptoglobin mRNA [6] = assay: Cardiac haptoglobin mRNA (RT-PCR); type: in vivo, CD-1 mice
Description: as §1

[7] = set-up: species or system mice; settings: mouse, in vivo, iv
[8] = 4 h after IV injection, N-Mgb 1 mg, SnPP 1 mmol [sic]

SMILES: C=Cc1c2[n-]c(c1C)/C=c1\[n-]/c(c(C)c1C=C)=C\c1[n-]c(c(CCC(=O)O)c1C)/C=c1\[n-]c(c(C)c1CCC(=O)O)=C2.[Sn+4] [SnPP, tin protoporphyrin]
- Liver mRNA Haptoglobin (haptoglobin mRNA [1]; 4 h after IV injection): 0.32 ± 0.02
- Liver mRNA Haptoglobin (haptoglobin mRNA [1]; 18 h after IV injection): 0.65 ± 0.17
- Cardiac mRNA IL-10 (IL-10 mRNA [2]; 4 h after IV injection): 0.58 ± 0.16
- Cardiac mRNA IL-10 (IL-10 mRNA [2]; 18 h after IV injection): 0.53 ± 0.10
- Impact on renal IL-10 mRNA levels, in words (IL-10 mRNA [3]; 4-hour time point, agent alone): either minimal or no impact
- Kidney mRNA IL-10 (IL-10 mRNA [3]; [8]): 0.39 ± 0.15
- Kidney mRNA cortex IL-10 (IL-10 mRNA [3]; 18 h after IV injection): 0.18 ± 0.09
- Renal cortical haptoglobin mRNA induction (haptoglobin mRNA [4]): raised
- Kidney Haptoglobin protein (haptoglobin protein; [8]): 13.1 ± 1.3
- Kidney protein Haptoglobin (haptoglobin protein; 18 h after IV injection): 53.5 ± 17.2
- Liver mRNA HO-1 (HO-1 mRNA; 4 h after IV injection): 3.15 ± 0.25
- Liver mRNA HO-1 (HO-1 mRNA; 18 h after IV injection): 2.56 ± 0.21
- Cardiac protein HO-1 (HO-1 protein): 2.67 ± 0.4
- Liver mRNA IL-10 (IL-10 mRNA [5]; 4 h after IV injection): 0.14 ± 0.1
- Liver mRNA IL-10 (IL-10 mRNA [5]; 18 h after IV injection): 0.05 ± 0.01
- Cardiac mRNA Haptoglobin (haptoglobin mRNA [6]; 4 h after IV injection): 0.52 ± 0.21
- Cardiac mRNA Haptoglobin (haptoglobin mRNA [6]; 18 h after IV injection): 0.59 ± 0.17
- Plasma LDH, Average [7]: 4.51 Absorbance U LDH/ml
